Measured values: ChEMBL document CHEMBL2321764, “Synthesis and antibacterial activities of new piperidine substituted (5R)-[1,2,3]triazolylmethyl and (5R)-[(4-F-[1,2,3]triazolyl)methyl] oxazolidinones” (Bioorg Med Chem Lett, 2013)
In brackets after ≈: the same amount, converted by molar mass.

What was measured:
[1] = test system: Staphylococcus aureus; experiment: Antibacterial activity against methicillin-resistant Staphylococcus aureus C463 by agar dilution method; type: functional
[2] = test system: Streptococcus agalactiae; experiment: Antibacterial activity against Streptococcus agalactiae ATCC 2901 by agar dilution method; type: functional
[3] = test system: Staphylococcus; experiment: Antibacterial activity against methicillin-resistant coagulase negative Staphylococcus by agar dilution method; type: functional
[4] = test system: Enterococcus faecium; experiment: Antibacterial activity against vancomycin-resistant Enterococcus faecium C803 by agar dilution method; type: functional
[5] = test system: Streptococcus pyogenes; experiment: Antibacterial activity against Streptococcus pyogenes 308A by agar dilution method; type: functional
[6] = test system: Enterococcus faecalis; experiment: Antibacterial activity against vancomycin-resistant Enterococcus faecalis C474 by agar dilution method; type: functional
[7] = test system: Haemophilus influenzae; experiment: Antibacterial activity against betalactamase positive Haemophilus influenzae by agar dilution method; type: functional
[8] = test system: Streptococcus pneumoniae; experiment: Antibacterial activity against penicillin-resistant Streptococcus pneumoniae C402 by agar dilution method; type: functional
[9] = target: CYP2C9 (Homo sapiens, UniProt P11712); experiment: Inhibition of CYP2C9 (unknown origin) assessed as residual activity at 10 uM; type: ADME; conditions: read-out: INH
[10] = target: T1, CYP1A2 (Homo sapiens, UniProt P05177); experiment: Inhibition of CYP1A2 (unknown origin) assessed as residual activity at 10 uM; type: ADME; conditions: read-out: INH
T1 sequence (P05177 whole entry): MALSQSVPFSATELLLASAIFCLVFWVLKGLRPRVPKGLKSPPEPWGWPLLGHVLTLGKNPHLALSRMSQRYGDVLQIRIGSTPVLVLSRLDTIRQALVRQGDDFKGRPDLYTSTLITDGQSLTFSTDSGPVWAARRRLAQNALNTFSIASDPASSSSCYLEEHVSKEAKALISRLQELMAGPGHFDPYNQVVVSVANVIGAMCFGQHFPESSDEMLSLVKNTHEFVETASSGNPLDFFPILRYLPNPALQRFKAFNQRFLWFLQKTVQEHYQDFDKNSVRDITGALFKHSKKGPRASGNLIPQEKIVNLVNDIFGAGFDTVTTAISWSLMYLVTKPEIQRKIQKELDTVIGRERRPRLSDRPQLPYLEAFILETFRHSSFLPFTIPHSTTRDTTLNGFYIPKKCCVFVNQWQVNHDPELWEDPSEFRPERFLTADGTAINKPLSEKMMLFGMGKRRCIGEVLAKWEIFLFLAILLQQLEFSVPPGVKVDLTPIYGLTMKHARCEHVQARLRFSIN

[11] = target: T2, MAO-A (Homo sapiens, UniProt P21397); experiment: Inhibition of human MAO-A assessed as residual activity at 10 uM; conditions: read-out: INH
T2 sequence (P21397 whole entry): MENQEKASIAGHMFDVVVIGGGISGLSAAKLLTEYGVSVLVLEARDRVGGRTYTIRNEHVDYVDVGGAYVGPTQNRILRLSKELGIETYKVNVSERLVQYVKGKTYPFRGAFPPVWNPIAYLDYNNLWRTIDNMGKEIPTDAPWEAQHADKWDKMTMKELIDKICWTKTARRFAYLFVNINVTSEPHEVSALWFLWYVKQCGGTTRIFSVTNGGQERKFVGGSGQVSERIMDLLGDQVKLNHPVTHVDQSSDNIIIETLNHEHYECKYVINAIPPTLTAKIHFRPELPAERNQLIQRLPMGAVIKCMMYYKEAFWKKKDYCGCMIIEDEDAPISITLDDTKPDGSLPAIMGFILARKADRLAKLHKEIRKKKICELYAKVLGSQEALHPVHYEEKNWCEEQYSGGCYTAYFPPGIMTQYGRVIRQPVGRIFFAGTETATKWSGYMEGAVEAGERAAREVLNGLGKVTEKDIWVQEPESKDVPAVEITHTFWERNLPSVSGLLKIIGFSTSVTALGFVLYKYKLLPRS

[12] = target: CYP2D6 (Homo sapiens, UniProt P10635); experiment: Inhibition of CYP2D6 (unknown origin) assessed as residual activity at 10 uM; type: ADME; conditions: read-out: INH
[13] = target: CYP3A4 (Homo sapiens, UniProt P08684); experiment: Inhibition of CYP3A4 (unknown origin) assessed as residual activity at 10 uM; type: ADME; conditions: read-out: INH
[14] = target: T3, MAO-B (Homo sapiens, UniProt P27338); experiment: Inhibition of human MAO-B assessed as residual activity at 10 uM; conditions: read-out: INH
T3 sequence (P27338 whole entry): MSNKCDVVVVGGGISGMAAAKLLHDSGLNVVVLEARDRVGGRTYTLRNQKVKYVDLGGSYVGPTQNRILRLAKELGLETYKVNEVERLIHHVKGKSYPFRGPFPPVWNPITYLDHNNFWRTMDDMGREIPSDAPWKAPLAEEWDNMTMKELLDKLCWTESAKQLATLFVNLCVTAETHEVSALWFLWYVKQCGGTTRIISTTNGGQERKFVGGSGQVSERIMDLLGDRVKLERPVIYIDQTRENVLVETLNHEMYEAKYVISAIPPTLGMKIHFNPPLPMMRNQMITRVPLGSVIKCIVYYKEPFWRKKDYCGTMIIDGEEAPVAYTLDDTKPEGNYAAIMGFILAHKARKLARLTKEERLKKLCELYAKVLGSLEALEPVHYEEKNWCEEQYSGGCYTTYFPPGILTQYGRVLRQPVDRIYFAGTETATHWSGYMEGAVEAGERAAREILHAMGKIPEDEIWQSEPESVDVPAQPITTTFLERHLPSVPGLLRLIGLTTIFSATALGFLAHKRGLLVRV

[15] = target: Voltage-gated inwardly rectifying potassium channel KCNH2 (Homo sapiens, UniProt Q12809); experiment: Inhibition of human hERG by automated patch clamp assay
Voltage-gated inwardly rectifying potassium channel KCNH2, sequence (Q12809 whole entry): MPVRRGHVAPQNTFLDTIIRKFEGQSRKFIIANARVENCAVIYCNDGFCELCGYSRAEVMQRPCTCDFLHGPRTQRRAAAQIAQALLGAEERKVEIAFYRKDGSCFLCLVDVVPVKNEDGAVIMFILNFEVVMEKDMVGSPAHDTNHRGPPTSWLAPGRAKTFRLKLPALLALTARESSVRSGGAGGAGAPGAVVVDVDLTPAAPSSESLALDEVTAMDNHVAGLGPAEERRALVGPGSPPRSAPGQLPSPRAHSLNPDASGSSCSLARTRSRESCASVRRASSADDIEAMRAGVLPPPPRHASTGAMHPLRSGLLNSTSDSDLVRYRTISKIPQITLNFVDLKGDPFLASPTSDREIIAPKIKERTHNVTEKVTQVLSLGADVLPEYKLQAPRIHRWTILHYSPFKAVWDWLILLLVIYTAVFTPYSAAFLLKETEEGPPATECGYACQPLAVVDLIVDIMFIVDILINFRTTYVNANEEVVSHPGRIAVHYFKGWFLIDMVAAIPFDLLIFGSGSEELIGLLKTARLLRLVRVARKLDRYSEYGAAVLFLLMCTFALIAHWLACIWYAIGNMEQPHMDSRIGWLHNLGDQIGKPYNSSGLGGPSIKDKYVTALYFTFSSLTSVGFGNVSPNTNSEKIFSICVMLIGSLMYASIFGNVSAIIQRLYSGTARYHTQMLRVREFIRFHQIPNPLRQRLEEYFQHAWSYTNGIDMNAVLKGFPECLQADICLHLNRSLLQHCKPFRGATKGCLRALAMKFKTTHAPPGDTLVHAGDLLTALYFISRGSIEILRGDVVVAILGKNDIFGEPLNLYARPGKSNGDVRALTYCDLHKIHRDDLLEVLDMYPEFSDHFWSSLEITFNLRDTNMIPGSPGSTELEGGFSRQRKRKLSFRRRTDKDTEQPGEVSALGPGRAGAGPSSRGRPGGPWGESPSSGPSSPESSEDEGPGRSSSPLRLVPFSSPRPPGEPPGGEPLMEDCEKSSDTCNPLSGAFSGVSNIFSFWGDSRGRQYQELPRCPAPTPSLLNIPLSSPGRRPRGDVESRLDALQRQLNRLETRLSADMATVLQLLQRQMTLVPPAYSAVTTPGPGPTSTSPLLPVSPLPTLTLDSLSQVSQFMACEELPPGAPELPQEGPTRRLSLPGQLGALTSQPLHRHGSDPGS

CYP2D6, sequence (P10635 whole entry): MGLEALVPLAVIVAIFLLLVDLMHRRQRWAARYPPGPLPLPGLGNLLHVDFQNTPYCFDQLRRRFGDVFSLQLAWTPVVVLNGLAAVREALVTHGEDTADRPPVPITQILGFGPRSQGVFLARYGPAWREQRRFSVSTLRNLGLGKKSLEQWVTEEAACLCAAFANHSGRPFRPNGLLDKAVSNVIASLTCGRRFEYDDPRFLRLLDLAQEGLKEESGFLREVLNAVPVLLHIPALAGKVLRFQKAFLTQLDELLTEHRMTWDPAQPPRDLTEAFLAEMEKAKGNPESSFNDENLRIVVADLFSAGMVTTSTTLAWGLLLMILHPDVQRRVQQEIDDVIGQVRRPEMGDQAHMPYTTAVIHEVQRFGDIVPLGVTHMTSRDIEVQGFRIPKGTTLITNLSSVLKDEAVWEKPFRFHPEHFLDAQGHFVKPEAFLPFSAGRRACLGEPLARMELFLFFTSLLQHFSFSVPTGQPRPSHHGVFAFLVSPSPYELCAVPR
CYP2C9, sequence (P11712 whole entry): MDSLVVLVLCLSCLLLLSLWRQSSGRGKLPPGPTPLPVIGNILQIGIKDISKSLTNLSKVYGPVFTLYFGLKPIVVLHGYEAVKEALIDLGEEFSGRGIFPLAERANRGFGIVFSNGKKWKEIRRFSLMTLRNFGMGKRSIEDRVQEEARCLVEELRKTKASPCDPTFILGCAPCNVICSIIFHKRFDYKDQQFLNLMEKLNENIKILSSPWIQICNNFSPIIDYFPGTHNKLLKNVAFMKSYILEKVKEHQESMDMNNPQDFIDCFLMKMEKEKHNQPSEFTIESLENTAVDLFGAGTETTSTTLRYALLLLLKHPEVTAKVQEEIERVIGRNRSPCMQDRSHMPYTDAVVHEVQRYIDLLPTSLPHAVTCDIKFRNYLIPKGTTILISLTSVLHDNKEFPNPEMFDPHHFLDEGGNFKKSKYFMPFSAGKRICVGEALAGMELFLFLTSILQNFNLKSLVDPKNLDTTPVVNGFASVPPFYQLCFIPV
CYP3A4, sequence (P08684 whole entry): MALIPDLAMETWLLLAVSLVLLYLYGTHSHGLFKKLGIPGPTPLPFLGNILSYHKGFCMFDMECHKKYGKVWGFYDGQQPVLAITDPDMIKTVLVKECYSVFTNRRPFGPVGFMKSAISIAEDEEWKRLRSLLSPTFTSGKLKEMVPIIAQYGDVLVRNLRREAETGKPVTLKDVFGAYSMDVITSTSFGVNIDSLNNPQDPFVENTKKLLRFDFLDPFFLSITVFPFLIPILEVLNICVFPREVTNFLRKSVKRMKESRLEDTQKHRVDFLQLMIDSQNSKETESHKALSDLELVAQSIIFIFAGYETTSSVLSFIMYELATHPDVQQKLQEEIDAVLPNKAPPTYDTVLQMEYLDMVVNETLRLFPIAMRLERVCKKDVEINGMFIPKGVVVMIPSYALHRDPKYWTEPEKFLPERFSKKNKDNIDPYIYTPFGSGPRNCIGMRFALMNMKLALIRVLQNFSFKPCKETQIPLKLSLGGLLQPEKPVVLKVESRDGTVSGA

| Compound | MIC [1] [µg/mL] | MIC [2] [µg/mL] | MIC [3] [µg/mL] | MIC [4] [µg/mL] | MIC [5] [µg/mL] | MIC [6] [µg/mL] | MIC [7] [µg/mL] | MIC [8] [µg/mL] | activity at 10 µM [9] [%] | activity at 10 µM [10] [%] | activity at 10 µM [11] [%] | activity at 10 µM [12] [%] | activity at 10 µM [13] [%] | activity at 10 µM [14] [%] | IC50 [15] [µM] |
| --- | --- | --- | --- | --- | --- | --- | --- | --- | --- | --- | --- | --- | --- | --- | --- |
| CCOC(=O)C(Cl)=C1CCN(c2ccc(N3C[C@H](Cn4ccnn4)OC3=O)cc2F)CC1 | 25 (≈ 53.9 µM) | 6.25 (≈ 13.5 µM) | 25 (≈ 53.9 µM) | 25 (≈ 53.9 µM) | 6.25 (≈ 13.5 µM) | 12.5 (≈ 26.9 µM) | 6.25 (≈ 13.5 µM) | 12.5 (≈ 26.9 µM) |  |  |  |  |  |  |  |
| CCOC(=O)C(Cl)=C1CCN(c2ccc(N3C[C@H](Cn4cc(F)nn4)OC3=O)cc2F)CC1 | 100 (≈ 208 µM) | 25 (≈ 51.9 µM) | 100 (≈ 208 µM) | 100 (≈ 208 µM) | 50 (≈ 104 µM) | 100 (≈ 208 µM) | 50 (≈ 104 µM) | 100 (≈ 208 µM) |  |  |  |  |  |  |  |
| CC(C#N)=C1CCN(c2ccc(N3C[C@H](Cn4ccnn4)OC3=O)cc2F)CC1 | 1.56 (≈ 3.94 µM) | 0.19 (≈ 0.479 µM) | 1.56 (≈ 3.94 µM) | 1.56 (≈ 3.94 µM) | 0.39 (≈ 0.984 µM) | 1.56 (≈ 3.94 µM) | 0.39 (≈ 0.984 µM) | 0.19 (≈ 0.479 µM) | 61.5 | 45.7 | 34.8 | 65.1 | 7.45 | 74.8 | 213 |
| CC(C#N)=C1CCN(c2ccc(N3C[C@H](Cn4cc(F)nn4)OC3=O)cc2F)CC1 | 100 (≈ 241 µM) | 12.5 (≈ 30.2 µM) | 100 (≈ 241 µM) | 100 (≈ 241 µM) | 6.25 (≈ 15.1 µM) | 100 (≈ 241 µM) | 6.25 (≈ 15.1 µM) | 6.25 (≈ 15.1 µM) | 64.8 | 92.8 | 10.2 | 106 | 21.4 | 34.8 | 21 |
| N#CC1(O)CCN(c2ccc(N3C[C@H](Cn4ccnn4)OC3=O)cc2F)CC1 | 3.12 (≈ 8.07 µM) | 1.56 (≈ 4.04 µM) | 3.12 (≈ 8.07 µM) | 3.12 (≈ 8.07 µM) | 0.78 (≈ 2.02 µM) | 3.12 (≈ 8.07 µM) | 1.56 (≈ 4.04 µM) | 0.78 (≈ 2.02 µM) |  |  |  |  |  |  |  |
| N#CC1(O)CCN(c2ccc(N3C[C@H](Cn4cc(F)nn4)OC3=O)cc2F)CC1 | 100 (≈ 247 µM) | 12.5 (≈ 30.9 µM) | 100 (≈ 247 µM) | 100 (≈ 247 µM) | 6.25 (≈ 15.5 µM) | 100 (≈ 247 µM) | 6.25 (≈ 15.5 µM) | 6.25 (≈ 15.5 µM) |  |  |  |  |  |  |  |
| N#CC1=CCN(c2ccc(N3C[C@H](Cn4ccnn4)OC3=O)cc2F)CC1 | 3.12 (≈ 8.47 µM) | 1.56 (≈ 4.23 µM) | 3.12 (≈ 8.47 µM) | 3.12 (≈ 8.47 µM) | 1.56 (≈ 4.23 µM) | 3.12 (≈ 8.47 µM) | 1.56 (≈ 4.23 µM) | 1.56 (≈ 4.23 µM) |  |  |  |  |  |  |  |
| N#CC1=CCN(c2ccc(N3C[C@H](Cn4cc(F)nn4)OC3=O)cc2F)CC1 | 100 (≈ 259 µM) | 100 (≈ 259 µM) | 100 (≈ 259 µM) | 50 (≈ 129 µM) | 50 (≈ 129 µM) | 50 (≈ 129 µM) | 6.26 (≈ 16.2 µM) | 6.25 (≈ 16.2 µM) |  |  |  |  |  |  |  |
| CC(=O)NC[C@H]1CN(c2ccc(N3CCC(=CC#N)CC3)c(F)c2)C(=O)O1 | 3.12 (≈ 8.38 µM) | 0.78 (≈ 2.09 µM) | 3.12 (≈ 8.38 µM) | 3.12 (≈ 8.38 µM) | 0.78 (≈ 2.09 µM) | 3.12 (≈ 8.38 µM) | 0.78 (≈ 2.09 µM) | 0.39 (≈ 1.05 µM) |  |  |  |  |  |  |  |
| CC(=O)NC[C@H]1CN(c2ccc(N3CCOCC3)c(F)c2)C(=O)O1 [LINEZOLID] | 3.12 (≈ 9.25 µM) | 1.56 (≈ 4.62 µM) | 3.12 (≈ 9.25 µM) | 1.56 (≈ 4.62 µM) | 0.78 (≈ 2.31 µM) | 3.12 (≈ 9.25 µM) | 0.78 (≈ 2.31 µM) | 0.78 (≈ 2.31 µM) |  |  | 6.79 |  |  | 31.4 |  |
